Reference: patent US10537558B2 (Bantam Pharmaceutical, LLC, priority 2015, dated 2020)

These compounds were tested on BJAB cells (assay: BJAB cell proliferation (Cell Titer Glo)). Settings: Homo sapiens, read-out: EC50.
Format: cell-based
Protocol: Cells were seeded in white Corning Costar 96-well assay plates at 2500 cells/well in 50 μL of medium. Serial dilutions of test compounds were made in cell culture medium/FBS+0.2% DMSO, and transferred to assay plates in a volume of 50 μL (DMSO at 0.1% final). Plates were maintained at 37° C. for approximately 72 hours. The effect of compounds on cell proliferation was evaluated using the Cell Titer Glo reagent (Promega), according to the manufacturer's instructions. Briefly, 100 μL of reagent was added per well, and after a 10 minute incubation luminescence values were determined on a plate reader (Tecan F200PRO). The percent of luminescence signal relative to untreated controls was calculated for each compound concentration, and EC50 values were determined from dose response data by non-linear regression analysis using Prism (GraphPad). The mTor inhibitor Torin1 (Liu, et al. (2010) J. Med. Chem. 53, 7146.) was used as a control. The data are summarized in the compound table provided above.
In the case of Cc1nn(-c2nc(-c3cc(Cl)ccc3F)c(SC(C)C)s2)c(C(=O)O)c1-c1cc(Cl)cc(Cl)c1 [Compound 25, 1-(4-(5-chloro-2-fluorophenyl)-5-(isopropylthio)thiazol-2-yl)-4-(3,5-dichlorophenyl)-3-methyl-1H-pyrazole-5-carboxylic Acid], the EC50 is reported as 1 to 5 µM.
With Cc1cc(-c2c(C)nn(-c3nc(-c4cc(Cl)ccc4F)c(SC(C)C)s3)c2C(=O)O)cc(C)n1 [Compound 26, 1-(4-(5-chloro-2-fluorophenyl)-5-(isopropylthio)thiazol-2-yl)-4-(2,6-dimethylpyridin-4-yl)-3-methyl-1H-pyrazole-5-carboxylic Acid] the EC50 was 5 to 10 µM.
Cc1noc(C)c1-c1nc(-n2nc(C)c(-c3cc(Cl)cc(Cl)c3)c2C(=O)O)sc1SC(C)C [Compound 27, 4-(3,5-dichlorophenyl)-1-(4-(3,5-dimethylisoxazol-4-yl)-5-(isopropylthio)thiazol-2-yl)-3-methyl-1H-pyrazole-5-carboxylic Acid] showed an EC50 greater than 25 µM.
Compound Cc1nn(-c2nc(-c3cnn(C)c3)c(SC(C)C)s2)c(C(=O)O)c1-c1cc(Cl)cc(Cl)c1 [Compound 28, 4-(3,5-dichlorophenyl)-1-(5-(isopropylthio)-4-(1-methyl-1H-pyrazol-4-yl)thiazol-2-yl)-3-methyl-1H-pyrazole-5-carboxylic Acid] has an EC50 greater than 25 µM.
Cc1nn(-c2nc(-c3ccncc3)c(SC(C)C)s2)c(C(=O)O)c1-c1cc(Cl)cc(Cl)c1 [Compound 29, 4-(3,5-dichlorophenyl)-1-(5-(isopropylthio)-4-(pyridin-4-yl)thiazol-2-yl)-3-methyl-1H-pyrazole-5-carboxylic acid] was tested, and the EC50 was greater than 25 µM.
Cc1nn(-c2nc(-c3cccnc3)c(SC(C)C)s2)c(C(=O)O)c1-c1cc(Cl)cc(Cl)c1 [Compound 30, 4-(3,5-dichlorophenyl)-1-(5-(isopropylthio)-4-(pyridin-3-yl)thiazol-2-yl)-3-methyl-1H-pyrazole-5-carboxylic acid] was tested, and the EC50 was greater than 25 µM.
Cc1nn(-c2nc(-c3ccc4nccn4c3)c(SC(C)C)s2)c(C(=O)O)c1-c1cc(Cl)cc(Cl)c1 [Compound 31, 4-(3,5-dichlorophenyl)-1-(4-(imidazo[1,2-a]pyridin-6-yl)-5-(isopropylthio)thiazol-2-yl)-3-methyl-1H-pyrazole-5-carboxylic acid] showed an EC50 greater than 25 µM.
CCC(C)Sc1sc(-n2nc(C)c(-c3cc(Cl)cc(Cl)c3)c2C(=O)OC)nc1-c1ccc(Cl)c(Cl)c1 (stereo not shown) [Compound 32a] showed an EC50 greater than 25 µM.
Work on CCC(C)Sc1sc(-n2nc(C)c(-c3cc(Cl)cc(Cl)c3)c2C(=O)O)nc1-c1ccc(Cl)c(Cl)c1 (stereo not shown) [Compound 32b] yielded an EC50 of 1 to 5 µM.
With CCC(C)Sc1sc(-n2nc(C)c(-c3cc(C)nc(C)c3)c2C(=O)OC)nc1-c1ccc(Cl)c(Cl)c1 (stereo not shown) [Compound 33a] the EC50 was greater than 25 µM.
Compound CCC(C)Sc1sc(-n2nc(C)c(-c3cc(C)nc(C)c3)c2C(=O)O)nc1-c1ccc(Cl)c(Cl)c1 (stereo not shown) [Compound 33b] has an EC50 of less than 1 µM.
Compound COc1ccccc1-c1nc(-n2nc(C)c(-c3cc(C)nc(C)c3)c2C(=O)O)sc1SC(C)C [Compound 34, 4-(2,6-dimethylpyridin-4-yl)-1-(5-(isopropylthio)-4-(2-methoxyphenyl)thiazol-2-yl)-3-methyl-1H-pyrazole-5-carboxylic acid] has an EC50 of 5 to 10 µM.
For COc1cccc(-c2nc(-n3nc(C)c(-c4cc(C)nc(C)c4)c3C(=O)O)sc2SC(C)C)c1 [Compound 35, 4-(2,6-dimethylpyridin-4-yl)-1-(5-(isopropylthio)-4-(3-methoxyphenyl)thiazol-2-yl)-3-methyl-1H-pyrazole-5-carboxylic Acid], the EC50 was 1 to 5 µM.
COc1ccc(-c2nc(-n3nc(C)c(-c4cc(C)nc(C)c4)c3C(=O)O)sc2SC(C)C)cc1 [Compound 36, 4-(2,6-dimethylpyridin-4-yl)-1-(5-(isopropylthio)-4-(4-methoxyphenyl)thiazol-2-yl)-3-methyl-1H-pyrazole-5-carboxylic acid] was tested, and the EC50 was 10 to 25 µM.
For Cc1cc(-c2c(C)nn(-c3nc(-c4ccccc4)c(SC(C)C)s3)c2C(=O)O)cc(C)n1 [Compound 37, 4-(2,6-dimethylpyridin-4-yl)-1-(5-(isopropylthio)-4-phenylthiazol-2-yl)-3-methyl-1H-pyrazole-5-carboxylic Acid], the EC50 was 5 to 10 µM.
Cc1nn(-c2nc(-c3ccc(Cl)c(Cl)c3)c(SC(C)C)s2)c(C(=O)O)c1-c1c(CO)noc1C [Compound 38, 1-(4-(3,4-dichlorophenyl)-5-(isopropylthio)thiazol-2-yl)-4-(3-(hydroxymethyl)-5-methylisoxazol-4-yl)-3-methyl-1H-pyrazole-5-carboxylic acid] gave an EC50 greater than 50 µM.
COCc1noc(C)c1-c1c(C)nn(-c2nc(-c3ccc(Cl)c(Cl)c3)c(SC(C)C)s2)c1C(=O)O [Compound 39, 1-(4-(3,4-dichlorophenyl)-5-(isopropylthio)thiazol-2-yl)-4-(3-(methoxymethyl)-5-methylisoxazol-4-yl)-3-methyl-1H-pyrazole-5-carboxylic acid] gave an EC50 of 10 to 25 µM.
Cc1ccc(-c2nc(-n3nc(C)c(-c4cc(C)nc(C)c4)c3C(=O)O)sc2SC(C)C)cc1 [Compound 40, 4-(2,6-dimethylpyridin-4-yl)-1-(5-(isopropylthio)-4-p-tolylthiazol-2-yl)-3-methyl-1H-pyrazole-5-carboxylic acid] gave an EC50 of 1 to 5 µM.
For Cc1cccc(-c2nc(-n3nc(C)c(-c4cc(C)nc(C)c4)c3C(=O)O)sc2SC(C)C)c1 [Compound 41, 4-(2,6-dimethylpyridin-4-yl)-1-(5-(isopropylthio)-4-m-tolylthiazol-2-yl)-3-methyl-1H-pyrazole-5-carboxylic Acid], the EC50 was 5 to 10 µM.
Compound Cc1cc(-c2c(C)nn(-c3nc(-c4ccccc4C)c(SC(C)C)s3)c2C(=O)O)cc(C)n1 [Compound 42, 4-(2,6-dimethylpyridin-4-yl)-1-(5-(isopropylthio)-4-o-tolylthiazol-2-yl)-3-methyl-1H-pyrazole-5-carboxylic acid] has an EC50 of 1 to 5 µM.
Compound Cc1nn(-c2nc(-c3ccc(Cl)c(Cl)c3)c(SC(C)C)s2)c(C(=O)O)c1-c1cccnc1 [Compound 44, 1-(4-(3,4-dichlorophenyl)-5-(isopropylthio)thiazol-2-yl)-3-methyl-4-(pyridin-3-yl)-1H-pyrazole-5-carboxylic acid] has an EC50 of 10 to 25 µM.
In the case of CSc1sc(-n2nc(C)c(Cc3ccccc3[N+](=O)[O-])c2C(=O)O)nc1-c1ccc(Cl)c(Cl)c1 [Compound 45, 1-(4-(3,4-dichlorophenyl)-5-(methylthio)thiazol-2-yl)-3-methyl-4-(2-nitrobenzyl)-1H-pyrazole-5-carboxylic acid], the EC50 is reported as 25 to 50 µM.
In the case of Cc1nn(-c2nc(-c3ccc(Cl)c(Cl)c3)c(SC(C)C)s2)c(C(=O)O)c1-c1cccc(CO)c1 [Compound 46, 1-(4-(3,4-dichlorophenyl)-5-(isopropylthio)thiazol-2-yl)-4-(3-(hydroxymethyl)phenyl)-3-methyl-1H-pyrazole-5-carboxylic acid], the EC50 is reported as 10 to 25 µM.
Work on Cc1nn(-c2nc(-c3ccc(Cl)c(Cl)c3)c(SC(C)C)s2)c(C(=O)O)c1-c1ccncc1 [Compound 47, 1-(4-(3,4-dichlorophenyl)-5-(isopropylthio)thiazol-2-yl)-3-methyl-4-(pyridin-4-yl)-1H-pyrazole-5-carboxylic Acid] yielded an EC50 of 5 to 10 µM.
With Cc1nn(-c2nc(-c3ccc(Cl)c(Cl)c3)c(SC(C)C)s2)c(C(=O)O)c1-c1cccc(CN)c1 [Compound 48, 4-(3-(aminomethyl)phenyl)-1-(4-(3,4-dichlorophenyl)-5-(isopropylthio)thiazol-2-yl)-3-methyl-1H-pyrazole-5-carboxylic acid] the EC50 was 25 to 50 µM.
